Measurements: US4312874A, “Antibacterial compounds, processes for their preparation and compositions containing them” (Beecham Group Limited, priority 1979, dated 1982)
In brackets after ≈: the same amount, converted by molar mass. Where two headings read alike, the source gives them in different places.

Legend:
Sarcina lutea 8340 = assay: MIC by serial dilution in nutrient agar with 5% chocolated horse blood; type: cell-based; details: Micrococcus luteus
[1] = system: Staph. aureus B4 (pen resis); assay: MIC by agar dilution, veterinary bacteria; details: Staphylococcus aureus, 24 h
M. suipneumoniae MS 16 = assay: in vitro MIC by serial dilution in Friis modified agarose medium; type: cell-based; details: Mesomycoplasma hyopneumoniae, MS16; Table 3
Past. multocida PA1 = assay: MIC by agar dilution, veterinary bacteria; details: Pasteurella multocida, PA1, 24 h
[2] = system: M. suipneumoniae PW/C/210; assay: in vitro MIC by serial dilution in Friis modified agarose medium; type: cell-based; details: Mesomycoplasma hyopneumoniae; Table 3
M. bovis NCTC 10131 = assay: microbe, parasite or virus in culture; type: cell-based; details: NCTC10131
[3] = system: Corynebacterium xerosis 9755; assay: MIC by serial dilution in nutrient agar with 5% chocolated horse blood; type: cell-based; details: Table 1
Strep. pneumoniae CN33 = assay: as above; type: cell-based; details: Streptococcus pneumoniae, Table 1
M. hyorhinis ATCC 23234 = assay: in vitro MIC by serial dilution in Friis modified agarose medium; type: cell-based; details: Mesomycoplasma hyorhinis, ATCC23234; Table 3
M.suipneumoniae NB12 = assay: as above; type: cell-based; details: Mesomycoplasma hyopneumoniae, Table 3
[4] = system: M. bovigenitalium ATCC 14173; assay: as above; type: cell-based
Strep. pyogenes A 64/848 = assay: MIC by serial dilution in nutrient agar with 5% chocolated horse blood; type: cell-based; details: Streptococcus pyogenes, A64/848; Table 1
M. pneumoniae ATCC 15492 = assay: in vitro MIC by serial dilution in Friis modified agarose medium; type: cell-based; details: Mycoplasmoides pneumoniae, ATCC15492; Table 3
Staph. aureus Oxford = assay: MIC by agar dilution, veterinary bacteria; details: Staphylococcus aureus, 24 h
Strep. agalactiae SPA1 = assay: MIC by agar dilution, veterinary bacteria; details: Streptococcus agalactiae, SPA1, 24 h
M. hyorhinis ATCC 25021 = assay: in vitro MIC by serial dilution in Friis modified agarose medium; type: cell-based; details: Mesomycoplasma hyorhinis, ATCC25021; Table 3
Bord. bronchiseptica B08 = assay: MIC by agar dilution, veterinary bacteria; details: Bordetella bronchiseptica, B08, 24 h
E. coli ESS = assay: MIC by serial dilution in nutrient agar with 5% chocolated horse blood; type: cell-based; details: Escherichia coli; Table 1
[5] = Mouse blood levels of Example 1 following oral and subcutaneous administration; type: in vivo, albino male mice; details: read-out: blood conc.; for concentration at 0.5 h: 30 min; for concentration at 1 h: 60 min; for concentration at 2 h: 120 min; for concentration at 4 h: 240 min
Protocol: Mouse blood levels of Example 1 following its oral and subcutaneous administration
Blood levels were assessed in albino male mice (18-22 g CSI). The dose was 50 mg/kg administered in a 10% DMF solution orally and subcutaneously. The mice were killed at intervals up to 4 hours and the blood assayed microbiologically using B. subtilis.

[6] = Mouse blood levels of Example 3 following oral and subcutaneous administration; type: in vivo, albino male mice (strain OLAC: MF-1); details: read-out: blood conc.; for concentration at 0.5 h: 30 min; for concentration at 0.75 h: 45 min; for concentration at 1 h: 60 min; for concentration at 1.5 h: 90 min
Protocol: Mouse blood levels of Example 3 following its oral and subcutaneous administration
Blood levels were assessed in albino male mice (strain OLAC: MF-1, 18-22 g). The dose was 50 mg/kg administered in a 10% ethanol solution orally and subcutaneously. The mice were killed at intervals up to 90 min and the blood assayed microbiologically using B. subtilis ATCC 6633 in TSA at pH 8.0.

[7] = Mean serum concentrations in milk weaned piglets after oral administration; type: in vivo; details: pig, p.o. 50 mg/kg
Protocol: Mean serum concentrations in milk weaned piglets of Example 3 after oral administration at 50 mg/kg
Blood levels were assessed in milk weaned piglets (mean bodyweight 4.1 kg). The dose was 50 mg/kg administered orally (intubation) as a 25 mg/ml of 25% aqueous ethanol solution. Piglets were bled at intervals up to […] and the serum assayed microbiologically using B. subtilis ATCC 6633.

[8] = Mean serum concentrations in neonatal piglets after intramuscular or oral administration; type: in vivo; details: pig; for concentration at 1 h: 60'
Protocol: Mean serum concentrations in neonatal piglets of Example 3 after intramuscular or oral administration at 50 mg/kg
Blood levels were assessed in neonatal piglets (mean bodyweight ca. 3 kg). The dose was 50 mg/kg administered as a 25 mg/ml of 25% aqueous ethanol solution. Doses were given by intramuscular injection and orally by stomach tube. Piglets were bled at intervals up to 24 hr and the serum assayed microbiologically using B. subtilis ATCC 6633.

CCC(=O)C=C(C)CC1OCC(CC2OC2C(C)C(C)O)C(O)C1O [Example 2, 1-[3R,4R-Dihydroxy-5S-(2S,3S-epoxy-5-S-hydroxy-4S-methylhexyl)tetrahydropyran-2S-yl]-2-methylhex-2E-en-4-one]
MIC (Sarcina lutea 8340): > 50 µg/mL | MIC [1]: 0.625 µg/mL (≈ 1.75 µM) | MIC (M. suipneumoniae MS 16): 2.5 µg/mL (≈ 7.01 µM) | MIC (Past. multocida PA1): 0.625 µg/mL (≈ 1.75 µM) | MIC [2]: 2.5 µg/mL (≈ 7.01 µM) | MIC (M. bovis NCTC 10131): 0.1 µg/mL (≈ 0.281 µM) | MIC [3]: 25 µg/mL (≈ 70.1 µM) | MIC (Strep. pneumoniae CN33): 12.5 µg/mL (≈ 35.1 µM) | MIC (M. hyorhinis ATCC 23234): 2.5 µg/mL (≈ 7.01 µM) | MIC (M.suipneumoniae NB12): 2.5 µg/mL (≈ 7.01 µM) | MIC [4]: 0.1 µg/mL (≈ 0.281 µM) | MIC (Strep. pyogenes A 64/848): 12.5 µg/mL (≈ 35.1 µM) | MIC (M. pneumoniae ATCC 15492): > 10 µg/mL | MIC (Staph. aureus Oxford): 0.312 µg/mL (≈ 0.875 µM) | MIC (Strep. agalactiae SPA1): 20 µg/mL (≈ 56.1 µM) | MIC (M. hyorhinis ATCC 25021): 2.5 µg/mL (≈ 7.01 µM) | MIC (Bord. bronchiseptica B08): > 40 µg/mL

CC(=O)C=C(C)CC1OCC(CC2OC2C(C)C(C)O)C(O)C1O [Example 1, 1-[3R,4R-Dihydroxy-5S-(2S,3S-epoxy-5S-hydroxy-4S-methylhexyl)-2,3,5,6-tetrahydropyran-2-S-yl]-2-methylpent-2E-en-4-one]
MIC (Sarcina lutea 8340; Table 1, read-out: MIC): > 100 µg/mL | MIC [1]: 10 µg/mL (≈ 29.2 µM) | MIC (M. suipneumoniae MS 16): 10 µg/mL (≈ 29.2 µM) | MIC (Past. multocida PA1): 5 µg/mL (≈ 14.6 µM) | MIC [2]: 10 µg/mL (≈ 29.2 µM) | MIC (E. coli ESS): 10 µg/mL (≈ 29.2 µM) | MIC (M. bovis NCTC 10131): 0.25 µg/mL (≈ 0.73 µM) | MIC [3]: > 100 µg/mL | MIC (Strep. pneumoniae CN33): 25 µg/mL (≈ 73 µM) | MIC (M. hyorhinis ATCC 23234): 10 µg/mL (≈ 29.2 µM) | MIC (M.suipneumoniae NB12): > 10 µg/mL | MIC ([4]; Table 3, read-out: MIC): 0.5 µg/mL (≈ 1.46 µM) | MIC (Strep. pyogenes A 64/848): 50 µg/mL (≈ 146 µM) | concentration at 5 min ([5]; oral 50 mg/kg): 5900 ng/mL | concentration at 10 min ([5]; oral 50 mg/kg): 7700 ng/mL | concentration at 20 min ([5]; oral 50 mg/kg): 4800 ng/mL | concentration at 0.5 h ([5]; oral 50 mg/kg): < 3000 ng/mL | concentration at 1 h ([5]; oral 50 mg/kg): < 3000 ng/mL | concentration at 2 h ([5]; oral 50 mg/kg): < 3000 ng/mL | concentration at 4 h ([5]; oral 50 mg/kg): < 3000 ng/mL | concentration at 5 min ([5]; sc, subcutaneous 50 mg/kg): 16400 ng/mL | concentration at 10 min ([5]; sc, subcutaneous 50 mg/kg): 15300 ng/mL | concentration at 20 min ([5]; sc, subcutaneous 50 mg/kg): 9800 ng/mL | concentration at 0.5 h ([5]; sc, subcutaneous 50 mg/kg): 5000 ng/mL | concentration at 1 h ([5]; sc, subcutaneous 50 mg/kg): < 3000 ng/mL | concentration at 2 h ([5]; sc, subcutaneous 50 mg/kg): < 3000 ng/mL | concentration at 4 h ([5]; sc, subcutaneous 50 mg/kg): < 3000 ng/mL | MIC (M. pneumoniae ATCC 15492): > 10 µg/mL | MIC (Strep. agalactiae SPA1): > 80 µg/mL | MIC (M. hyorhinis ATCC 25021): 10 µg/mL (≈ 29.2 µM) | MIC (Bord. bronchiseptica B08): > 80 µg/mL

CCCCC(=O)C=C(C)CC1OCC(CC2OC2C(C)C(C)O)C(O)C1O [Example 3, 1-[3R,4R-Dihydroxy-5S-(2S,3S-epoxy-5S-hydroxy-4S-methylhexyl)tetrahydropyran-2S-yl]-2-methyloct-2E-en-4-one]
MIC (Sarcina lutea 8340; Table 1, read-out: MIC): > 100 µg/mL | MIC [1]: 2.5 µg/mL (≈ 6.5 µM) | MIC (M. suipneumoniae MS 16): 0.5 µg/mL (≈ 1.3 µM) | MIC (Past. multocida PA1): 2.5 µg/mL (≈ 6.5 µM) | MIC [2]: 0.5 µg/mL (≈ 1.3 µM) | concentration at 5 min ([6]; oral 50 mg/kg): 9400 ng/mL | concentration at 10 min ([6]; oral 50 mg/kg): 5100 ng/mL | concentration at 20 min ([6]; oral 50 mg/kg): < 1500 ng/mL | concentration at 0.5 h ([6]; oral 50 mg/kg): < 1500 ng/mL | concentration at 0.75 h ([6]; oral 50 mg/kg): < 1500 ng/mL | concentration at 1 h ([6]; oral 50 mg/kg): < 1500 ng/mL | concentration at 1.5 h ([6]; oral 50 mg/kg): < 1500 ng/mL | concentration at 5 min ([6]; sc, subcutaneous 50 mg/kg): 19800 ng/mL | concentration at 10 min ([6]; sc, subcutaneous 50 mg/kg): 15500 ng/mL | concentration at 20 min ([6]; sc, subcutaneous 50 mg/kg): 7300 ng/mL | concentration at 0.5 h ([6]; sc, subcutaneous 50 mg/kg): 2200 ng/mL | concentration at 0.75 h ([6]; sc, subcutaneous 50 mg/kg): < 1500 ng/mL | concentration at 1 h ([6]; sc, subcutaneous 50 mg/kg): < 1500 ng/mL | concentration at 1.5 h ([6]; sc, subcutaneous 50 mg/kg): < 1500 ng/mL | MIC (E. coli ESS): 1 µg/mL (≈ 2.6 µM) | MIC (M. bovis NCTC 10131): 0.025 µg/mL (≈ 0.065 µM) | concentration at 10 min ([7]; 10'): 2100 ng/mL | concentration at 20 min ([7]; 20'): 1900 ng/mL | concentration at 40 min ([7]; 40'): 720 ng/mL | concentration at 1 h ([7]; 60'): 1100 ng/mL | concentration at 2 h ([7]; 2 hr): 480 ng/mL | concentration at 3 h ([7]; 3 hr): 370 ng/mL | concentration at 4 h ([7]; 4 hr): 200 ng/mL | concentration at 6 h ([7]; 6 hr): 110 ng/mL | concentration at 8 h ([7]; 8 hr): < 60 ng/mL | MIC [3]: 100 µg/mL (≈ 260 µM) | MIC (Strep. pneumoniae CN33): 5 µg/mL (≈ 13 µM) | MIC (M. hyorhinis ATCC 23234): 0.5 µg/mL (≈ 1.3 µM) | MIC (M.suipneumoniae NB12): 1 µg/mL (≈ 2.6 µM) | MIC ([4]; Table 3, read-out: MIC): 0.05 µg/mL (≈ 0.13 µM) | MIC (M. pneumoniae ATCC 15492): 10 µg/mL (≈ 26 µM) | concentration at 10 min ([8]; im, i.m. 50 mg/kg): 8500 ng/mL | concentration at 20 min ([8]; im, i.m. 50 mg/kg): 7900 ng/mL | concentration at 40 min ([8]; im, i.m. 50 mg/kg): 5100 ng/mL | concentration at 1 h ([8]; im, i.m. 50 mg/kg): 4300 ng/mL | concentration at 2 h ([8]; im, i.m. 50 mg/kg): 1300 ng/mL | concentration at 3 h ([8]; im, i.m. 50 mg/kg): 1200 ng/mL | concentration at 4 h ([8]; im, i.m. 50 mg/kg): < 70 ng/mL | concentration at 10 min ([8]; po, p.o. 50 mg/kg): 3100 ng/mL | concentration at 20 min ([8]; po, p.o. 50 mg/kg): 2000 ng/mL | concentration at 40 min ([8]; po, p.o. 50 mg/kg): 1400 ng/mL | concentration at 1 h ([8]; po, p.o. 50 mg/kg): 830 ng/mL | concentration at 2 h ([8]; po, p.o. 50 mg/kg): 700 ng/mL | concentration at 3 h ([8]; po, p.o. 50 mg/kg): 600 ng/mL | concentration at 4 h ([8]; po, p.o. 50 mg/kg): < 70 ng/mL | MIC (Staph. aureus Oxford): 2.5 µg/mL (≈ 6.5 µM) | MIC (Strep. agalactiae SPA1): 10 µg/mL (≈ 26 µM) | MIC (M. hyorhinis ATCC 25021): 0.5 µg/mL (≈ 1.3 µM) | MIC (Bord. bronchiseptica B08): > 80 µg/mL
